Reference: patent US5089529A, “Butanol derivatives” (Nippon Shinyaku Co., Ltd., priority 1983, dated 1992)
Where two headings read alike, the source gives them in different places.

Legend:
[1] = system: Arrhythmia in Mice Caused by Aconitine; test: Action against arrhythmia in mice caused by aconitine; format: in vivo, ddY-Male mice; conditions: Mus musculus
Method: A method by Nwangwu, et al (P.U. Nwangwu, T.L. Holcslow and S.J. Stohs: Arch. int. Pharmacodyn. 229, 219-226, 1977) was partly modified and the experiment was carried out. ddY-Male mice weighing 25 to 30 grams were used. One group was composed of four mice.
Arrhythmia was induced by infusion of aconitine at a concentration of 5 μg/ml in saline into a tail vein at the rate of 0.25 ml/min using a perfusion pump in mice anesthetized with Nembutal. Test drugs were administered orally or intraperitoneally 30 minutes prior to the start of infusion of aconitine. Incidentally, lidocaine was given intraperitoneally 15 minutes prior to administration of aconitine.
The status of arrhythmia was judged by an electrocardiographic recording (lead II) and, when the onset time of the arrhythmia was delayed more than "average time of untreated group plus 2SD", it was judged to have antiarrhythmic action. Then ED50 values were calculated by Weil's method from the effective rate at each dosage level.

[2] = system: Arrhythmia in Dogs Caused by Digitalis; test: Arrhythmia in dogs caused by digitalis (digoxin); format: in vivo, Beagle dogs; conditions: anesthetized dogs
Text: Beagle dogs weighing 10 to 14 kg were used. […] The arrhythmia was judged by an electrocardiographic recording (lead II) and, when there was an appearance of descending or ascending big QRS complex, it was judged that ventricular arrhythmia appeared.

Row | Structure (SMILES) | ED50 ([1]; ip, read-out: ED50, i.p.) [mg/kg] | ED50 ([1]; po, read-out: ED50, p.o.) [mg/kg] | Duration of Action ([2]; 2 mg/kg intravenous) [s] | Efficacy Ratio ([2]; 2 mg/kg intravenous) [%] | Duration of Action ([2]; 1 mg/kg intravenous) [s] | Efficacy Ratio ([2]; 1 mg/kg intravenous) [%]
1 | CC(C)N(CCC(C(N)=O)(c1ccccc1)c1ccccn1)C(C)C (centres unmarked) [Disopyramide, reference compound] | 12.5 | 29.7 | 365 | 57.1 | – | –
2 | CC(C)CN(CCCC(O)(c1ccccc1)c1ccccc1)CC(C)C [Example 1, 4-Diisobutylamino-1,1-diphenyl-1-butanol] | 14.9 | 17.7 | 515 | 62.5 | 400 | 50.0
3 | CC(C)CNCCCC(O)(c1ccccc1)c1ccccc1 [Example 10, 1,1-Diphenyl-4-isobutylamino-1-butanol] | 11.5 | 20.3 | 500 | 58.7 | – | –
4 | CCN(CC)CC(=O)Nc1c(C)cccc1C [Lidocaine, reference compound] | 35.4 | – | 350 | 50.0 | – | –
